From PMC6965684, “Characterization of binding, functional activity, and contractile responses of the selective 5‐HT1F receptor agonist lasmiditan” (British Journal of Pharmacology, 2019)
Counter-ions that a name gives are not always drawn.

Experiments:
[1] = biological target: T1, 5-ht1E receptor (Homo sapiens, UniProt P28566); test: biochemical; format: CHO-K1 membranes; parameters: GTPγS agonist functional assay; details: GTPγS
T1 construct: gene HTR1E; full-length human recombinant receptor in CHO-K1 cells (Ogeda); crude membranes
Source text: (§1) Additionally, the reference values obtained were compared to historical values obtained from the same receptor and used to validate the experimental session. […] For the new assays developed in this study (i.e., 5‐ht1E receptor), the two independent pIC50 determined must be concordant with a 1 log unit interval for the assays to be validated.

[2] = biological target: T2, 5-HT1F receptor (Homo sapiens, UniProt P30939); test: biochemical; format: CHO-K1 membranes; parameters: GTPγS agonist functional assay; details: GTPγS
T2 construct: gene HTR1F; full-length human recombinant receptor in CHO-K1 cells (Ogeda)
T2 sequence (P30939 1-366): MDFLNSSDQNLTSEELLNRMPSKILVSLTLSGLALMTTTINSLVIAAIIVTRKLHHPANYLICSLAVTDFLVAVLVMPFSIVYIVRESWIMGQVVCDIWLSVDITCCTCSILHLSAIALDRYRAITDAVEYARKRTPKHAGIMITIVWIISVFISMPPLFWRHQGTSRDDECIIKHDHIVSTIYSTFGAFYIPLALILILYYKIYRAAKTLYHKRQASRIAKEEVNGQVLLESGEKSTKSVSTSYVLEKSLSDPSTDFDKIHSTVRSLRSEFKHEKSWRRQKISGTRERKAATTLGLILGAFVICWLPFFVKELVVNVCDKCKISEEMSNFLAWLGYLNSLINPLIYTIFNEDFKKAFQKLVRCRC
Source text: as §1

[3] = biological target: T2, 5-HT1F receptor; test: cell-based; parameters: species or system CHO-K1; cAMP HTRF agonist assay, Gi coupled receptors, inhibition of stimulated cAMP; details: cAMP
Method: Concentration–response curves were performed in parallel with the agonists. For agonist tests, 12 μl of cells were mixed with 6 μl of the test compound (at increasing concentrations) and 6 μl of https://www.guidetopharmacology.org/GRAC/LigandDisplayForward?ligandId=5190 and then incubated for 30 min at room temperature. After addition of the lysis buffer and 1‐hr incubation, cAMP concentrations were estimated according to the manufacturer specification with the HTRF kit (Cisbio International, Codelet, France). In brief, increasing concentrations of agonists were added to stably transfected cells in buffer in an Optiplate (PerkinElmer Life Sciences, Massachusetts, USA). The plates were incubated, and cells were then lysed by the addition of HTRF reagents (cAMP‐Cryptate and anti‐cAMP‐d2 reagents) and diluted in lysis buffer, followed by incubation at room temperature. As 5‐HT1B receptors have been reported in naïve CHO‐K1 cells (George, Bungay, & Naylor, 1997), we also tested https://www.guidetopharmacology.org/GRAC/LigandDisplayForward?ligandId=4 (5‐CT, the reference agonist for the 5‐HT1B receptor), in CHO‐K1 cells transfected with a non‐5‐HT, GPCR. […] For the new assays developed in this study (i.e., 5‐ht1E receptor), the two independent pIC50 determined must be concordant with a 1 log unit interval for the assays to be validated. […]

[4] = biological target: T2, 5-HT1F receptor; test: radioligand competition, CHO-K1 membranes; format: binding; details: radioligand listed in supplement Table S1; unreliable (pIC50 printed as <[…])
Source text: radioligand competition, CHO-K1 membranes on 5-HT1F receptor

T1 sequence (P28566 whole entry): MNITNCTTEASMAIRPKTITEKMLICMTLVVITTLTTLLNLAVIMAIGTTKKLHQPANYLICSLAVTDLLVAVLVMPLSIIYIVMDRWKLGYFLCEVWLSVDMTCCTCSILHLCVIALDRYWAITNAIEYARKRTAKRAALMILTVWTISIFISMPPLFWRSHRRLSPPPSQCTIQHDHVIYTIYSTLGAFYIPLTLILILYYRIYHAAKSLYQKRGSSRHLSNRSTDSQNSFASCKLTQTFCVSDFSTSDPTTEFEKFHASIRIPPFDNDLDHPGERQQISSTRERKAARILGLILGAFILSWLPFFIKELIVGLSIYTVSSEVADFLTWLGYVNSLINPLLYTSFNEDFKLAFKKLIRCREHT

Compound | EC50 [1] [nM] | EC50 [2] [nM] | EC50 [3] [nM] | 5-HT1F / pKi [4]
CNC1CCc2[nH]c3ccc(C(N)=O)cc3c2C1 (racemic) [Frovatriptan racemate] | > 10000 | 447 | 79.4 | 
CNS(=O)(=O)CCc1ccc2[nH]cc(C3CCN(C)CC3)c2c1 [Naratriptan hydrochloride] | 6.76 | 8.91 |  | 
CN1CCC[C@@H]1Cc1c[nH]c2ccc(CCS(=O)(=O)c3ccccc3)cc12 [Eletriptan hydrobromide] | 126 | 132 |  | 
CNS(=O)(=O)Cc1ccc2[nH]cc(CCCN3CCN(c4ncncc4OC)CC3)c2c1 [Avitriptan fumarate] | > 10000 | 891 |  | 
N#Cc1ccc(N2CCN(C(=O)COc3ccc4[nH]cc(CCN)c4c3)CC2)cc1 [Donitriptan hydrochloride] | > 10000 |  |  | 5.18 -log M
CN(C)[C@@H]1CCc2[nH]c3ccc(NC(=O)c4ccc(F)cc4)cc3c2C1 [LY344864 hydrochloride] |  | 14.1 | 1.91 | 
